In ChEMBL document CHEMBL5465560, “Selectivity Literature for EUbOPEN Chemogenomic Library” (2024):

Assays:
[1] = molecular target: T1, Dual specificity mitogen-activated protein kinase kinase 4 (Homo sapiens) (UniProt P45985); assay: Selectivity interaction (KinomeScan (DiscoverX)) EUB0000229b MAP2K4; details: at 10 µM
T1 sequence (whole entry): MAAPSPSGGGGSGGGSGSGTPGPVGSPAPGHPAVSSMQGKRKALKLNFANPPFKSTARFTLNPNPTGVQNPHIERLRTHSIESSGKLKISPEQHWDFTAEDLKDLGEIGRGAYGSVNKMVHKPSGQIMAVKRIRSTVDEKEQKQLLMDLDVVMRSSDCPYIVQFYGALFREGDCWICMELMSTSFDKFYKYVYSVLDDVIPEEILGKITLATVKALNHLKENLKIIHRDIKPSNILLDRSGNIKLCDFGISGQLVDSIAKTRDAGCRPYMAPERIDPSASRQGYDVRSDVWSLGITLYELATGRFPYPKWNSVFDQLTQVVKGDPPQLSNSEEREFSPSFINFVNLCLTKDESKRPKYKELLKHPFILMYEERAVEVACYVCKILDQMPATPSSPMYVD

[2] = molecular target: T2, Testis-specific serine/threonine-protein kinase 1 (Homo sapiens) (UniProt Q9BXA7); details: at 10 µM
T2 sequence (whole entry): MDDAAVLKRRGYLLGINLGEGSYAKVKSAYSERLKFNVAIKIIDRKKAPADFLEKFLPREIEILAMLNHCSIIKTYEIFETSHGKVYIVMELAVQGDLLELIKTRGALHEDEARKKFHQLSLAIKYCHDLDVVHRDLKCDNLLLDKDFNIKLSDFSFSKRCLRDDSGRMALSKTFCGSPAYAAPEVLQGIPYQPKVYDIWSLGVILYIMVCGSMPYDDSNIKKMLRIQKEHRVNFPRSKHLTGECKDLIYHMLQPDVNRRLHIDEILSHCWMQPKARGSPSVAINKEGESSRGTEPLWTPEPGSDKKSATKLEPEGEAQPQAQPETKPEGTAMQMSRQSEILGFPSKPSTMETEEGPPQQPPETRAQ

[3] = molecular target: Cyclin-dependent kinase 9 (Homo sapiens, UniProt P50750); details: at 10 µM
[4] = molecular target: Serine/threonine-protein kinase PRP4 homolog (Homo sapiens) (UniProt Q13523); assay: Selectivity interaction (KinomeScan (DiscoverX)) EUB0000045b PRPF4B
[5] = molecular target: T3, Mitogen-activated protein kinase kinase kinase kinase 2 (Homo sapiens) (UniProt Q12851); assay: Selectivity interaction (KinomeScan (DiscoverX)) EUB0001079a MAP4K2; details: at 1 µM
T3 sequence (whole entry): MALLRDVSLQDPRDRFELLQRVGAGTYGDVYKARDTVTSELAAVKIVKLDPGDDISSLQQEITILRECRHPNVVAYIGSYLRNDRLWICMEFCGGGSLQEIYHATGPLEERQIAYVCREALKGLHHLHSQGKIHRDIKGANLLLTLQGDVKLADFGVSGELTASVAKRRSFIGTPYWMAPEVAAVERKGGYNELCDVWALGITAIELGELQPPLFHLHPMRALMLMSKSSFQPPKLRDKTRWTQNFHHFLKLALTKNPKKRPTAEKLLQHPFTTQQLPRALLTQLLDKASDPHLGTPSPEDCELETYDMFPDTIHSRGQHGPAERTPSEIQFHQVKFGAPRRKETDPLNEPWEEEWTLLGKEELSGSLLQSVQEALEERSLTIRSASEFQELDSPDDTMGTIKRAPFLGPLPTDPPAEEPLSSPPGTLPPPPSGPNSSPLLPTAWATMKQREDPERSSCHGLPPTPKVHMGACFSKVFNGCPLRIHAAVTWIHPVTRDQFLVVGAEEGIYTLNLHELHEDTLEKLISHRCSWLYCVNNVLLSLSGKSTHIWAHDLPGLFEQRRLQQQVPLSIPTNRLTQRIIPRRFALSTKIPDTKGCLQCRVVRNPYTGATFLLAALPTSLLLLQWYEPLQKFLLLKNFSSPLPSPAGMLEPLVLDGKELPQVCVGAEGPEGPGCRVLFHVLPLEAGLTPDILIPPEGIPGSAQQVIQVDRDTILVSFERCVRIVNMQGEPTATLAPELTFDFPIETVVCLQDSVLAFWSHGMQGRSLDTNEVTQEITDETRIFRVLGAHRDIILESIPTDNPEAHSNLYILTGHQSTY

[6] = molecular target: Serine/threonine-protein kinase 38 (Homo sapiens) (UniProt Q15208); details: at 10 µM
[7] = molecular target: Maternal embryonic leucine zipper kinase (Homo sapiens) (UniProt Q14680); assay: Selectivity interaction (Upstate Kinase Profiler service (Millipore)) EUB0000056c MELK; details: at 1 µM
[8] = molecular target: Tyrosine-protein kinase JAK1 (Homo sapiens, UniProt P23458); assay: Selectivity interaction (ActivX KiNativ screen (ex vivo kinase selectivity in human PBMCs)) EUB0001619a JAK1; format: cell-based; details: PBMC, at 1 µM
[9] = molecular target: T4, Serine/threonine-protein kinase Sgk3 (Homo sapiens) (UniProt Q96BR1); assay: Selectivity interaction (KinomeScan (DiscoverX)) EUB0000607a SGK3; details: at 10 µM
T4 sequence (whole entry): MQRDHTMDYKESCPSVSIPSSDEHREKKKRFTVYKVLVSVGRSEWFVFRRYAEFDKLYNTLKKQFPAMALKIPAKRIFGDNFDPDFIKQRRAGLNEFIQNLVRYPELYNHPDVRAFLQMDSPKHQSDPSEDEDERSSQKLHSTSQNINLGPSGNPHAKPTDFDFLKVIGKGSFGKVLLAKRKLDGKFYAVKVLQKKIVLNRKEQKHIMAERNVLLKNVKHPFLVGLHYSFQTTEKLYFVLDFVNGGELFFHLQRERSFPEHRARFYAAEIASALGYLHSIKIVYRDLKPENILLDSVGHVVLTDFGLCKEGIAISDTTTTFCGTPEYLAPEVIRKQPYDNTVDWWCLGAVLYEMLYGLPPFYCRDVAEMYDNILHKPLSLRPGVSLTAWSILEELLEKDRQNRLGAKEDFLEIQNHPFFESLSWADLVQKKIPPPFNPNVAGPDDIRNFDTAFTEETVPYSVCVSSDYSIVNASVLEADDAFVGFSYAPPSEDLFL

Sequence of Serine/threonine-protein kinase PRP4 homolog (Homo sapiens) (Q13523 whole entry): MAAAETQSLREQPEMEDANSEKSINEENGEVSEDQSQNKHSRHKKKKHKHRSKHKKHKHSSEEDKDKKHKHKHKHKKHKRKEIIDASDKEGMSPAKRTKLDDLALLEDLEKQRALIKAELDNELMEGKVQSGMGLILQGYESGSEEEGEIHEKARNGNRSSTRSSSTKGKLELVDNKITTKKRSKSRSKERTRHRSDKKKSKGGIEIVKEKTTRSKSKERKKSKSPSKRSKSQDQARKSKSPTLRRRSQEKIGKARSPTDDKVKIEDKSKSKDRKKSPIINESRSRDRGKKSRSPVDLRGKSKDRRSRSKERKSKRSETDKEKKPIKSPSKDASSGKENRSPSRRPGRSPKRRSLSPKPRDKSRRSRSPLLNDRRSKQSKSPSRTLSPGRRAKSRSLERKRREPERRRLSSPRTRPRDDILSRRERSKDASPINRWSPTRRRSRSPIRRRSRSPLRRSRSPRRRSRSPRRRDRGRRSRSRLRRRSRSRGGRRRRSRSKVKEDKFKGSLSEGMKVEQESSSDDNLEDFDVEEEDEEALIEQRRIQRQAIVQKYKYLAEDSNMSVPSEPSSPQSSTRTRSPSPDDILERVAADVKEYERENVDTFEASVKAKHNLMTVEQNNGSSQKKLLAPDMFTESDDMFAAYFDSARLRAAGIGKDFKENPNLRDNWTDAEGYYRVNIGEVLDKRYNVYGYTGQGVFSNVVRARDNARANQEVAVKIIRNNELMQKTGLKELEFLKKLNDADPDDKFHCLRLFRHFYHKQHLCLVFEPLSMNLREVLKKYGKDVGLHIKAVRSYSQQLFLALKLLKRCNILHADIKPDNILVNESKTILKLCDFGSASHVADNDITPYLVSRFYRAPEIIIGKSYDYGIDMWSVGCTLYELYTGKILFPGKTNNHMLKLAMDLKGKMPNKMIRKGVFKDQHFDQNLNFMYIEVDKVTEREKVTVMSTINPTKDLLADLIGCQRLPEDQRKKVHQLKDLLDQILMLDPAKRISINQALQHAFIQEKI
Sequence of Maternal embryonic leucine zipper kinase (Homo sapiens) (Q14680 whole entry, looked up): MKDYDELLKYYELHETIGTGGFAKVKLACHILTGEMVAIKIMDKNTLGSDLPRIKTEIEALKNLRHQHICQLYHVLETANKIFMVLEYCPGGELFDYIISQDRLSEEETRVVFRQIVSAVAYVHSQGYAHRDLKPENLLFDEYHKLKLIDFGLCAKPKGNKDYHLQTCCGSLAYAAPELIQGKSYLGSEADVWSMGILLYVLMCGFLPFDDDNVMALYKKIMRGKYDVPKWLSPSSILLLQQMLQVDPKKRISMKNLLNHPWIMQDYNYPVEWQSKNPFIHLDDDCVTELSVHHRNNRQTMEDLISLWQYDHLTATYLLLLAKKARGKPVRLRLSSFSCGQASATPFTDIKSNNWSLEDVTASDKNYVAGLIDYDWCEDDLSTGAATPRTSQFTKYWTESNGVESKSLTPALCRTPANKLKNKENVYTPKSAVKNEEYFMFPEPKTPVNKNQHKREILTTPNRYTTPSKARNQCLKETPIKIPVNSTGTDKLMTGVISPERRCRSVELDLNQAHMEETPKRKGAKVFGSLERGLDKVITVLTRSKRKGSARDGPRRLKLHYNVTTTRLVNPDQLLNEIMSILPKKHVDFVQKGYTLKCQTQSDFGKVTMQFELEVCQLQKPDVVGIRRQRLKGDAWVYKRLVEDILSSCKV
Sequence of Serine/threonine-protein kinase 38 (Homo sapiens) (Q15208 2-465 limits assumed): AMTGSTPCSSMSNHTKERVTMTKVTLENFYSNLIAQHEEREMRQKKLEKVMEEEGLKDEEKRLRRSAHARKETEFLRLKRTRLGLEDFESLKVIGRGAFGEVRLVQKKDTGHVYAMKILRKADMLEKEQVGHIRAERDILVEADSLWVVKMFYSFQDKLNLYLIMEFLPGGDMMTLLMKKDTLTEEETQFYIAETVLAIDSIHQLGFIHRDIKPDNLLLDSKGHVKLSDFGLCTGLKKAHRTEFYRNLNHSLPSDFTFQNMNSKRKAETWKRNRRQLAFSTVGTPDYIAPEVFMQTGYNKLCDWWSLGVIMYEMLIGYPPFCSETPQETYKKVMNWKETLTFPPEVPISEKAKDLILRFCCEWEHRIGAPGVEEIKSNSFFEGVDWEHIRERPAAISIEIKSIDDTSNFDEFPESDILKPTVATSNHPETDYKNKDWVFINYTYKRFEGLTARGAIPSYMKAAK
Sequence of Cyclin-dependent kinase 9 (P50750 whole entry): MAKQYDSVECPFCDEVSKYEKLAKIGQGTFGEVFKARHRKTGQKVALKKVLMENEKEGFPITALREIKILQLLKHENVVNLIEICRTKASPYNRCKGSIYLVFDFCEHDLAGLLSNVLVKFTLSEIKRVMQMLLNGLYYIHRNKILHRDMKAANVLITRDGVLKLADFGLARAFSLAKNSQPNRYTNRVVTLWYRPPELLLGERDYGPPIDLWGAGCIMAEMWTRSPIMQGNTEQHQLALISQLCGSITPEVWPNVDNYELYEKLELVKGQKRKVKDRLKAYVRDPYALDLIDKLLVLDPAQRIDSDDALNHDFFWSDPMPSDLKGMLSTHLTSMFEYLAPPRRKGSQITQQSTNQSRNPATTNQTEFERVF
Sequence of Tyrosine-protein kinase JAK1 (P23458 whole entry): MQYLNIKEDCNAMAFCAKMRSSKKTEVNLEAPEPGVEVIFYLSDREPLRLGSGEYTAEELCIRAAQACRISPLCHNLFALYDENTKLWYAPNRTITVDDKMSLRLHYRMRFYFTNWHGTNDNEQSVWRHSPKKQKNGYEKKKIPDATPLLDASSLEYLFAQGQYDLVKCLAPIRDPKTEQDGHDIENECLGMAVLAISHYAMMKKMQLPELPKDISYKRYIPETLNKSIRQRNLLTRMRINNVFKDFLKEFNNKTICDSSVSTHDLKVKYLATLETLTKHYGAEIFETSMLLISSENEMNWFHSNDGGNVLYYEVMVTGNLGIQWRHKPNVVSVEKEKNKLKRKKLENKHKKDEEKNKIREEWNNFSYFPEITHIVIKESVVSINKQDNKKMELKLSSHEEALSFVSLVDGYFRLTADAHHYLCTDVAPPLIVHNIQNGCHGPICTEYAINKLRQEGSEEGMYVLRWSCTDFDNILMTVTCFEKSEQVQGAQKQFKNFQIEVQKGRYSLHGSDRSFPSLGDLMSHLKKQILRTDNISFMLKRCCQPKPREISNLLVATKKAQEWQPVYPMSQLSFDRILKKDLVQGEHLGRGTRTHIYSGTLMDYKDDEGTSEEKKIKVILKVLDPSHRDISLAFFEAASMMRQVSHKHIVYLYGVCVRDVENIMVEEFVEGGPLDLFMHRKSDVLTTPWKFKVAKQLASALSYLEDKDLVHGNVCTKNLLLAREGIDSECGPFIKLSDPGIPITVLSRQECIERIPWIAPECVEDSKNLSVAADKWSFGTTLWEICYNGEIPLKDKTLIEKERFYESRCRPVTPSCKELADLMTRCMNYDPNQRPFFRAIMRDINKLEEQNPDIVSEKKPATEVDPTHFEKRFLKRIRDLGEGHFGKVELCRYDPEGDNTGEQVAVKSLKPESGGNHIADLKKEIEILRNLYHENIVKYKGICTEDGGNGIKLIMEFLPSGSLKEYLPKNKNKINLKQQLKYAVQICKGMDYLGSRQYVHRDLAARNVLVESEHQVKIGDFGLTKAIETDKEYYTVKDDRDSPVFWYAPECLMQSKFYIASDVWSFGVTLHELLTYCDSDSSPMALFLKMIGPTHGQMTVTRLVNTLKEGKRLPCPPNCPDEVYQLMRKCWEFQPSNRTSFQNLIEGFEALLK

## COc1cc(N(C)c2ccnc3ccc(C(F)(F)F)cc23)cc(OC)c1OC
[1]
  % binding: 100%

## COCC(=O)NC/C=C/c1ccc2ncnc(Nc3ccc(Oc4ccc(C)nc4)c(C)c3)c2c1 [CP-724714]
[2]
  % of control: 100%
[3]
  % of control: 100%

## C=CC(=O)Nc1cc(-n2c(=O)ccc3cnc4ccc(-c5ccc(NS(C)(=O)=O)cc5)cc4c32)ccc1C
[4]; at 1 µM
  % of control: 95%
[4]; at 10 µM
  % of control: 89%

## Nc1cnc(N2CCc3cc(S(=O)(=O)Nc4c(F)cc(Cl)cc4F)cc(N4CCCC4=O)c32)nc1 [TP-020n]
[5]
  % of control: 90%

## Cc1cc([C@@H](C)Nc2ccccc2C(=O)O)c2nc(N3CCOCC3)cc(=O)n2c1 [AZD-6482]
[6]
  % of control: 100%

## Cc1ccc(-c2ccc3c(ccc4sc5c(c43)NC[C@@H](C)NC5=O)n2)cn1
[7]
  % of inhibition: 10%

## N#Cc1cccc(-c2c[nH]c3ncnc(N4CCOCC4)c23)c1
[8]
  % of inhibition: -4%

## CNC(=O)Nc1ccc(-c2nc(N3CC4CCC(C3)O4)c3cnn(C4CCC5(CC4)OCCO5)c3n2)cc1
[9]
  % of control: 100%
